Tests used:
human CYP17A1 [1] = molecular target: T1, human CYP17A1 (Homo sapiens, UniProt P05093); assay: UV-VIS ligand binding assay (spectral titration) with purified CYP17A1; conditions: 100 nM purified CYP17A1, mean over 2 measurements ± standard error
T1 construct: bearing a truncation of the N-terminal helix; made in house
T1 sequence (P05093 with tags, fused parts or gaps limits assumed): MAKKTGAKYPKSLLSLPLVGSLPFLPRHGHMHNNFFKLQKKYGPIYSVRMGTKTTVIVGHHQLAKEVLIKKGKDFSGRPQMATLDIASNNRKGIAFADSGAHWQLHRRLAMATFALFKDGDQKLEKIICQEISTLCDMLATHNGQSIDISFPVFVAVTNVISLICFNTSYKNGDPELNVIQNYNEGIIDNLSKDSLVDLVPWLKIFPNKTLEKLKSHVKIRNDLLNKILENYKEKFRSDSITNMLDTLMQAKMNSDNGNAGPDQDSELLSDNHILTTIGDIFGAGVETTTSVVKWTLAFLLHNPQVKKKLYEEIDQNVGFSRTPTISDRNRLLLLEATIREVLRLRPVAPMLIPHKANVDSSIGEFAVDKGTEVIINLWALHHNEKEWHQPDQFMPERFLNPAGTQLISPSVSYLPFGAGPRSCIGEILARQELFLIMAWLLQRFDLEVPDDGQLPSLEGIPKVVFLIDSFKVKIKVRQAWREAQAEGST
Experimental: Direct coordination of nitrogen-containing heterocycles to the haem iron in the active site of cytochrome P450 enzymes causes a shift of the Soret peak λmax to higher wavelengths. Thus, UV-visible absorbance spectra were recorded as purified CYP17A1 was titrated with the 19 hit compounds. Addition of compounds 1–7 (cf. Fig. 2 and S3) yielded characteristic shifts in λmax from 417 nm to as high as 427 nm, typical of direct coordination to the haem iron. Plots of the changes in absorbance as a function of concentration can be used to evaluate ligand binding affinity. […] Compounds 6 and 7 have substantial intrinsic absorbance overlapping the range of the protein spectral change. Therefore the binding constants could not be determined for these latter two compounds.
Human CYP17A1 bearing a truncation of the N-terminal helix and a 4x histidine tag on the C-terminus was expressed and purified as previously reported.
Ligand binding was measured based on a change in UV-VIS absorbance (ΔA) upon ligand addition. Purified recombinant human cytochrome P450 enzymes (100 nM) were titrated with ligands dissolved in DMSO in 5 cm path length cuvettes. CYP17A1 and CYP21A2 were prepared in 50 mM Tris-HCl, pH 7.4, 500 mM NaCl, 20% (v/v) glycerol, and 100 mM glycine. The buffer used to prepare CYP21A2 also contained 50 mM DTT. CYP3A4 and CYP2D6 were prepared in 50 mM potassium phosphate, pH 7.4, 250 mM NaCl, 20% (v/v) glycerol and 1 mM EDTA. In each case, heteroatom coordination to the haem iron yields an increase in absorbance at ~420 nm and a corresponding decrease at ~390 nm. The apparent binding constant (Kd) and the maximum spectral change (ΔAmax) were calculated from a nonlinear least-squares regression fit to the tight binding equation (2) using GraphPad Prism 6.03.

human CYP17A1 [2] = molecular target: T1, human CYP17A1; assay: Progesterone 17α-hydroxylase inhibition with purified CYP17A1; format: biochemical; conditions: for IC50: conversion of PRO to 17-OH-PRO, 10 μM progesterone, mean over 3 measurements ± standard error
Experimental: (§1) Purified cytochrome P450 17A1 (50 nmol) was incubated with truncated human cytochrome P450 reductase[48] and rat cytochrome b5 in a 1:4:0 or 1:4:4 ratio for hydroxylase and 17,20-lyase reactions, respectively. […] Reactions were initiated upon addition of 25 mM NADPH as the electron source. The hydroxylated product was quantified after HPLC using an UV detector and analyzed as previously published. The 17,20-lyase assay was performed similarly substituting 1.2 μM of 17α-hydroxypregnenolone as the substrate and inhibitor concentrations of 0–500 nM. The dehydroepiandrosterone product was quantitated using a coupled GC/MS method.

human CYP17A1 [3] = molecular target: T1, human CYP17A1; assay: 17α-hydroxypregnenolone 17,20-lyase inhibition with purified CYP17A1; format: biochemical; conditions: conversion of 17-OH-PRE into DHEA, 1.2 μM 17α-hydroxypregnenolone; mean over 3 measurements ± standard error
Experimental: as §1

CYP21A2 = molecular target: T2, CYP21A2 (Homo sapiens, UniProt P08686); assay: H295R cell assay, CYP21A2 activity; format: cell-based; conditions: H295R cells
T2 sequence (P08686 1-495): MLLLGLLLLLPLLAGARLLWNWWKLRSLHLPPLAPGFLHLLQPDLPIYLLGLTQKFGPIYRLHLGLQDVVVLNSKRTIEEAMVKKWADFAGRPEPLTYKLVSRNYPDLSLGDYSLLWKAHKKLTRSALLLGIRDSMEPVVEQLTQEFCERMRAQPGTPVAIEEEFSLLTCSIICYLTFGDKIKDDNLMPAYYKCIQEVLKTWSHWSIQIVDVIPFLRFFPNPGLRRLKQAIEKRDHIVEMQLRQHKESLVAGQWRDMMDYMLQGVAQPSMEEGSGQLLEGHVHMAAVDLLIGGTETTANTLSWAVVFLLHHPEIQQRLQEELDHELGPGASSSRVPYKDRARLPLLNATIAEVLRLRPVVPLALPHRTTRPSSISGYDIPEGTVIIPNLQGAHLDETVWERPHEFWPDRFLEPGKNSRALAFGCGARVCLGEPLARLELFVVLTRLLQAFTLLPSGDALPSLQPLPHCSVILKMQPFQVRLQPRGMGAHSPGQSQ
Experimental: (§2) This cellular assay was also used to evaluate inhibitor selectivity.
(§3) The H295R steroid hormone synthesis assay was performed according to the OECD validation guideline. Cells were cultured in DMEM/F12 media supplemented with 1% ITS-premix and 2.5% Nu-serum at 37 °C with a 5% CO2 atmosphere. The cells were only used for experiments between passage […]. During exposure experiments, cells were grown in 24 well plates with a density of 3 × 10^5 cells/mL. […] To avoid interference from low levels of steroid hormones present in the Nu-serum, the exposure experiment was conducted with serum-free media. Each compound was tested at a minimum of seven concentration levels using three or more replicates and the experiment was repeated on two different days (n = 6–15). On each test plate a solvent control (SC) (medium with 0.1% DMSO) was included in triplicate and the maximal concentration of DMSO in the cell medium was 0.1%[49]. After 48 hours of incubation in presence of the test compounds, 950 μL of the medium was carefully removed and internal standards (50 μl of 0.1 μg/μl solution containing deuterated steroid analogues) were added. Samples were stored at −20 °C for later analysis.

[4] = Precipitation of compound in H295R exposure medium; format: physicochemical; conditions: H295R assay medium, 0.1% DMSO
Experimental: as §2, §3

H295R cells = assay: Cell viability, resazurin assay; format: cell-based, human
Description: Cell viability was confirmed with the resazurin assay, as described by Nielsen et al.[50].

Structure (SMILES) | Kd (human CYP17A1 [1]) [nM] | IC50 (human CYP17A1 [2]) [nM] | Potency for 17α-hydroxylase inhibition relative to abiraterone (times less potent) (human CYP17A1 [2]; recombinant human CYP17A1) | IC50 (human CYP17A1 [3]) [nM] | Inhibitor concentrations at which CYP21A2 is inhibited (CYP21A2) | Concentration at which precipitation was observed [4] | Concentration at which cells were not viable (H295R cells) [µM]
Cc1ccc(-c2csc(-c3cccnc3)n2)c(C)c1 [Compound 1] | < 100 | 230 ± 20 | 2–3 times | 500 ± 90 | greater than 1000 nM | around 10 μM | –
CCCn1nnc2cc(-c3cc(-c4ccncc4)c(C#N)c(N)n3)ccc21 [Compound 2] | < 100 | 130 ± 10 | – | 110 ± 20 | above 1000 nM | 60 µM | –
C[C@]12CC[C@H](O)CC1=CC[C@@H]1[C@@H]2CC[C@]2(C)C(c3cccnc3)=CC[C@@H]12 [abiraterone, reference compound] | < 100 | 92 ± 4 | – | 36 ± 2 | 30 to 3000 nM | – | 10

Source: publication PMC4942611, “Promising Tools in Prostate Cancer Research: Selective Non-Steroidal Cytochrome P450 17A1 Inhibitors” (Scientific Reports, 2016)
